According to US20020165216A1, “Cobalt-porphyrin complexes and use thereof as an anti-obesity agent” (MitoKor, priority 2000, published 2002):
Like-named read-outs stand apart in the source and are kept apart here.

Key:
[1] = Oxygen consumption catalyzed by Co-P in the presence of ascorbate/TMPD (Clark oxygen electrode); conditions: 2 mM ascorbate, 40 μM TMPD; for Relative Rate (oxygen consumption), effect of ligand, R5, A and n moiety: Table 4; for Relative Rate (oxygen consumption), effect of ligand, R5 and A moiety: Table 3; for O2 consumption / redox cycling (in words): cell free ascorbate/TMPD system
Method: (Co-MP). Such activity can be readily determined by, for example, the assay disclosed in Example 16. In that assay, redox activity is measured by oxygen consumption catalyzed by a Co-P test compound in the presence of ascorbate and TMPD.
Ten mM stock solutions of a Co-P of this invention (i.e., test compound) were prepared using ethanol as solvent. KCl media consists of 125 mM KCl, 2 mM K2HPO4, 20 mM HEPES, pH 7.0. Oxygen consumption measurements were carried out using a Clark type oxygen electrode (Rank Brothers Ltd., Cambridge, UK) and assay solutions were magnetically stirred during the course of the experiments. To 500 μl of assay solution (KCl media supplemented with 2 mM sodium ascorbate and 40 μM […] (TMPD)) is added 2 μl of a stock solution of test compound (40 μM final concentration) and the oxygen consumption rate is followed for 2-4 min. Subsequently, a 5 μl aliquot of a freshly made catalase solution (100 mg/ml solution in KCl media) is added to determine if H2O2 is generated via redox cycling of the test compound.
Initial rates are calculated from oxygen consumption slopes and rate of a solvent control is subtracted. […] An aliquot of a 10 mM stock solution of Co-MP (final concentration of 40 μM) was added to assay buffer containing 2 mM of ascorbate and 40 μM of TMPD. […] Addition of catalase results in conversion of H2O2 present in the assay solution to O2 and H2O.
Stock solutions of the test compound were at 10 mM. Aliquots of the stock solutions were added to 500 μl of assay buffer containing 2 mM of ascorbate and 40 μM of TMPD.
Representative Co-P compounds of this invention were prepared by the procedures disclosed above, and assayed by the procedure of Example 16 to measure oxygen consumption catalyzed by the test compound in the presence of ascorbate/TMPD. […] The above procedure was then repeated for other representative Co-P compounds of this invention, but utilizing different ligands and/or R groups.

Weight loss assay = type: in vivo, Male Sprague Dawley rats; conditions: 12 mM in vehicle, 400 μl per 100 grams body weight, subcutaneous, nuchal area, 8 days
Method: Male Sprague Dawley rats (approximately 200 g) were purchased from Charles River Canada, Inc. and were shipped to the Animal Care Facility at the University of Vermont. Upon arrival they were housed in separate cages with corncob bedding and ad lib access to tap water and purina rat chow. The animal facility is maintained at a temperature of 71° F. +/− 1° F. with a 12-hour light/dark cycle, lights on at 6:00 am and off at 6:00 pm. Two days later (Day-3) all rats were shaved in the nuchal area and baseline color photographs of the nuchal area were taken (light halothane anesthesia was utilized to facilitate the shaving). Three days later (Day 0) experimental compounds were made up at 12 mM concentrations in vehicle (i.e., saline:PEG400:EtOH (5:4:1), pH 7.4). Animals were injected subcutaneously in the nuchal area with the various stock solutions at a dose of 400 μl per 100 grams body weight. Typical injection volumes, therefore, range from 1 to 1.5 ml per animal. Animals were injected using a modified Z-track technique to try and minimize outflow of injected compounds due to the high volume utilized. Each animal was weighed prior to injection and all injections were accomplished in an approximately two-hour period. No anesthesia was utilized for injections.
Animals subsequently underwent daily weighing with a Mettler 6 second integrating balance and had ad lib access to tap water and purina rat chow. At various intervals after injections, the nuchal area of rats was again photographed. […] The scale used was 0 for no lesions, 5 for the worst lesions with breakdown of the skin and open flow of exudates. Grades in-between were estimated by the operator based on the size and severity of the lesion. […] After 8 days, final photographs were taken and all animals were euthanized, marking the end of the experiment.
Means of body weights for each group were calculated and plotted over time (FIG. 9A), as were numerical means of the lesion severity index (FIG. 9B). In FIGS. 9A and 9B, C=noninjected control, V=vehicle injected control, A=Co-MP, E=Cpd. No. (1-6) and F=Cpd. No. (4-4). […] Cpd.

[2] = tested on: SH-SY5Y neuroblastoma cells; experiment: Cellular assay for generation of reactive oxygen species (ROS); type: cell-based; conditions: for generation of reactive oxygen species (DCFC-DA fluorescence): 30 minutes with test compound
Method: All cell culture reagents were incubated in a water bath at 37° C. for approximately 30 minutes. Existing media from a near confluent tissue culture flask containing SH-SY5Y neuroblastoma cells was aspirated using a flame sterilized glass transfer pipette attached to a trapped vacuum apparatus. Calcium free PBS buffer was pipetted into the tissue culture flask (2 ml for a 75 cm2 flask, 3 ml for a 175 cm^2 flask). The flask was tipped slightly to ensure that the buffer covers the cell culture and then the buffer was removed by aspiration. Trypsin media was pipetted into the tissue culture flask (2 ml for a 75 cm^2 flask, 3 ml for a 175 cm^2 flask) and evenly spread to ensure that the trypsin covered the cell culture. The cell culture was incubated with trypsin media for 4-6 minutes at room temperature. After cells were released from the flask, the flask was tilted to one corner. Using the existing media within the flask, the aggregated cells were collected towards one corner and repeatedly pipetted to obtain a single cell suspension. The cell suspension was transferred with a pipette into a 15 ml conical shaped centrifuge tube then cell culture media was added to the suspension up to a total volume of 14 ml. Ten μl aliquots were withdrawn and the cells were counted using a hemocytometer. The suspension was centrifuged at 200×g for 10 minutes, the supernatant was aspirated off, and the cell pellet was resuspended at 3.75×10^5 cells/ml in cell culture medium. Two hundred μl of cell suspension were aliquoted per well in the 96 well dish to obtain a final cell number of 75,000 cells per well. The plates were incubated overnight at 37° C. and 5% CO2 in a humidified cell incubator.
The medium was carefully removed from the wells by aspiration with an 18 g needle. The wells were gently rinsed once with 200 μl of warm Hanks balanced saline solution (HBSS, Gibco-BRL). […]
Stock solutions of test compound, such as Co-PP, Co-MP, or a Co-P of this invention, and of an H2O2 scavenger such as ebselen, were typically prepared in dimethylformamide or dimethylsulfoxide and diluted further into working concentrations using HBSS. […] The plate was read immediately in Cytofluor model 2350 system (Millipore; excitation wavelength: 485 nm; emission wavelength: 530 nm) for a 0 min timepoint reading. The cells were incubated for 30 minutes at room temperature with test compound following which a 30 min reading was taken. The change in RMF over the 30 minutes period was calculated for each well. […] The plate was then read in the Cytofluor (excitation wavelength: 360 nm; emission wavelength: 460 nm) and the Hoechst fluorescence values were used to normalize the DCFC-DA RMF data.

reduced cytochrome c = reduced cytochrome c (Homo sapiens, UniProt P99999); experiment: Oxidation of reduced cytochrome c by Co-PP; type: biochemical; conditions: reduced cytochrome c 5.3, 10.5, 26 μM; 0-100 μM CoPP; absorbance at 550 nm
Method: Reduced cytochrome c was prepared by the addition of an excess of ascorbic acid to a solution of cytochrome c and allowing the solution to stand for 5 to 10 minutes. The reduced protein was purified over a Sephadex G50 column and checked spectrophotometrically by measuring absorbance at 550 nm, followed by the addition of a few grains of dithionite and measuring absorbance again at 550 nm. […] Initial rates of oxidation of reduced cytochrome c at three concentrations (5.3 μM, 10.5 μM and 26 μM) were followed in the presence of 0, 5,10, 20 and 100 μM CoPP. Assays were conducted in 1 ml of assay buffer (20 mM potassium phosphate, pH 7.0, 0.2 mg/ml dodecyl-β-maltoside) and initiated by the addition of desired concentration of reduced cytochrome c and monitoring the change in absorbance at 550 nm for 90 seconds. The fully oxidized absorbance value was determined by the addition of a few grains of ferricyanide to the cuvette. […] In a biological system, Co-PP can transfer electrons from an electron rich donor/reductant to molecular oxygen, O2, to generate reactive oxygen species, the production of which can be toxic to cells and give rise to undesirable side effects (e.g. oxidative stress).

[3] = high doses; cited from earlier work
[4] = subcutaneous administration, Zucker rats fa/fa; cited from earlier work
[5] = cited from earlier work
[6] = 40 μM test compound, normalized to chloride salt of Co-MP = 1

Chain of reduced cytochrome c (P99999 whole entry): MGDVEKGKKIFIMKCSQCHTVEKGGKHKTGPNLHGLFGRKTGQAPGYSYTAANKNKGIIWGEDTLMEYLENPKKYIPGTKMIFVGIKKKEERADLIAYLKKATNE

Compound: Cobalt (III) Mesoporphyrin IX Dibenzyl Ester [(8-1)]
- Relative Rate (oxygen consumption), effect of ligand, R5, A and n moiety [1, 6]: 0.045

Compound: Cobalt (III) Mesoporphyrin IX bisglycinate monosodium salt, dimethyl ester [(1-1)]
- Relative Rate (oxygen consumption), effect of ligand, R5 and A moiety [1, 6]: 0.21 ± 0.04

Compound: Cobalt (III) Mesoporphyrin IX Dithiobenzyl Ether [(10-1)]
- Relative Rate (oxygen consumption), effect of ligand, R5, A and n moiety [1, 6]: 0.021

Compound: Cobalt (III) Mesoporphyrin IX Dimethyl Ester [(5-1)]
- Relative Rate (oxygen consumption), effect of ligand and R5 moiety ([1]; Table 2, 40 μM test compound, normalized to chloride salt of Co-MP = 1): 0.05-0.07

Compound: Cobalt (III) Mesoporphyrin IX bisglycinate monosodium salt, diisobutyl ester [(1-3)]
- Relative Rate (oxygen consumption), effect of ligand, R5 and A moiety [1, 6]: (not detected)

Compound: Cobalt (III) Mesoporphyrin IX bisglycinate monosodium salt diisopropyl ester [(1-6)]
- body weight response (Weight loss assay): favorable body weight responses
- Relative Rate (oxygen consumption), effect of ligand, R5 and A moiety [1, 6]: (not detected)

Compound: Cobalt (III) Mesoporphyrin IX bisglycinate monosodium salt, diethyl ester [(1-5)]
- Relative Rate (oxygen consumption), effect of ligand, R5 and A moiety [1, 6]: 0.08 ± 0.01

Compound: Cobalt (III) Mesoporphyrin IX bisglycinate monosodium salt, diisoamyl ester [(1-4)]
- Relative Rate (oxygen consumption), effect of ligand, R5 and A moiety [1, 6]: (not detected)

Compound: Cobalt (III) mesoporphyrin IX bisimidazole, di(4-methoxybenzyl) amide [(4-2)]
- Relative Rate (oxygen consumption), effect of ligand, R5 and A moiety [1, 6]: (not detected)
- O2 consumption / redox cycling (in words) [1]: does not result in any O2 consumption
- generation of reactive oxygen species (DCFC-DA fluorescence) [2]: does not trigger generation of reactive oxygen species

Compound: Cobalt (III) Mesoporphyrin IX Diol [(6-1)]
- Relative Rate (oxygen consumption), effect of ligand, R5, A and n moiety [1, 6]: 0.56

Compound: O=c1c2ccccc2[se]n1-c1ccccc1 [ebelsen, ebselen]
- scavenging of reactive oxygen species induced by Co-PP and Co-MP [2]: scavanges the reactive oxygen species

Compound: C=CC1=C(C)c2cc3[n-]c(cc4nc(cc5[n-]c(cc1n2)c(C)c5CCC(=O)[O-])C(CCC(=O)[O-])=C4C)c(C)c3C=C.[Co+2].[H+].[H+] [Co-PP, Cobalt protoporphyrin]
- oxidation of reduced cytochrome c (reduced cytochrome c): serves as an electron acceptor from reduced cytochrome c
- heme oxygenase induction [3]: induction of heme oxygenase
- oxidative stress [3]: oxidative stress has been associated with administration of high doses
- Relative Rate (oxygen consumption), effect of ligand, R5 and A moiety [1, 6]: 2.2
- generation of reactive oxygen species (DCFC-DA fluorescence) [2]: reactive oxygen species were induced
- body weight [4]: long-sustained reduction in body weight
- body weight ([5]; single subcutaneous injection): sustained decrease in body weight
- carcass composition ([5]; single subcutaneous injection): decreases in carcass fat content without changes in protein content
- food intake ([5]; single subcutaneous injection): prompt dose-dependent decrease in food intake
- food intake and body weight effect ([5]; smaller doses, intracerebroventricular administration): elicit the same effect

Compound: c1c[nH]cn1 [imidazole]
- O2 consumption / redox cycling (in words) [1]: blocks generation of reactive oxygen species

Compound: Cobalt (III) Mesoporphyrin IX Diacetate [(7-1)]
- Relative Rate (oxygen consumption), effect of ligand, R5, A and n moiety [1, 6]: 0.07

Compound: Cobalt (III) Mesoporphyrin IX bisglycinate monosodium salt dibutyl ester [(1-2)]
- Relative Rate (oxygen consumption), effect of ligand, R5 and A moiety [1, 6]: (not detected)

Compound: Cobalt (III) Mesioirogyrin IX [(11-1)]
- Relative Rate (oxygen consumption), effect of ligand, R5, A and n moiety [1, 6]: 0.0005

Compound: CCC1=C(C)c2cc3[n-]c(cc4nc(cc5[n-]c(cc1n2)c(C)c5CCC(=O)NC(C)C)C(CCC(=O)NC(C)C)=C4C)c(C)c3CC.NCC(=O)O.NCC(=O)[O-].[Co+3] [(4-4), Cobalt (III) mesoporphvrin IX bisglycinate, di—(N-isopropyl)amide]
- body weight response (Weight loss assay): favorable body weight responses
